Measurements from patent EP0239461A1, “N-¬¬(hydroxy-2-phenyl)(phenyl)methylene amino-2 ethyl acetamide derivatives, process for their preparation and their therapeutical use” (SYNTHELABO, priority 1986, dated 1987).

Columns and labels:
[1] = Acute toxicity, oral LD50 in the mouse; settings: in vivo, read-out: DL50 (mg/kg) p.o.
Experimental: Leur toxicité aigüe est faible : la dose léthale à 50 % (LD50) déterminée chez la souris est supérieure à 1000 mg/kg par la voie orale pour la plupart d'entre eux.
(§1) Le tableau suivant donne les toxicités et les diminutions maximales d'ulcères obtenues aux doses indiquées, pour quelques composés de l'invention.

[2] = tested on: ulcère d'estomac induit par la phénylbutazone; experiment: Phenylbutazone-induced stomach ulcer in the rat; type: in vivo; settings: po, maximal decrease of ulcers, 30 min before phenylbutazone 200 mg/kg p.o., female Wistar rats, scored 2 h later, read-out: Diminution ulcération (%); for inhibition in vivo at 30 mg/kg: dose 30 mg/kg p.o.; for inhibition in vivo at 100 mg/kg: dose 100 mg/kg p.o.
Experimental: Les composés de l'invention ont été testés quant à leur effet sur l'ulcère d'estomac induit par la phénylbutazone chez le rat.
Le test est effectué sur des rats Wistar femelles pesant 180-210 g à jeun depuis 20 heures, répartis en blocs randomisés.
Les ulcères sont provoqués par l'administration orale de phénylbutazone en solution mole à mole avec de la soude, à la dose de 200 mg/kg.
Les composés à étudier sont administrés par voie orale à raison de 10, 30 ou 100 mg/kg, 30 minutes avant l'ingestion de phénylbutazone, les animaux témoins ne recevant que le placébo.
Deux heures après l'administration de l'agent ulcérigène, les animaux sont sacrifiés par inhalation de chloroforme. Les estomacs sont prélevés et le degré d'ulcération est noté en aveugle de 0 à 3.
as §1

Row | Structure (SMILES) | LD50 [1] [mg/kg] | inhibition in vivo at 30 mg/kg [2] [%] | inhibition in vivo at 100 mg/kg [2] [%] | inhibition in vivo at 10 mg/kg ([2]; dose 10 mg/kg p.o.) [%]
1 | Cc1ccccc1N1CCN(CC(=O)NCCNC(c2cc(Cl)ccc2O)c2ccccc2Cl)CC1 (stereo not shown) [compound 27] | > 1000 | 98 | – | –
2 | O=C(CN1CCC(O)CC1)NCCN=C(c1cc(Cl)ccc1O)c1ccccc1Cl [Composé n° 1, N-[[[(chloro-5 hydroxy-2 phényl)(chloro-2 phényl)méthylène]amino]-2 éthyl] (hydroxy-4 pipéridinyl-1)-2 acétamide] | > 1000 | 100 | – | –
3 | O=C(CN1CCC(O)CC1)NCCN=C(c1ccccc1)c1cc(Cl)ccc1O [Composé n° 2] | > 1000 | – | 100 | –
4 | Cc1cc(Cl)cc(C(=NCCNC(=O)CN2CCC(O)CC2)c2ccc(Cl)cc2)c1O [compound 3] | > 1000 | 94 | – | –
5 | Cc1ccc(O)c(C(=NCCNC(=O)CN2CCC(O)CC2)c2ccccc2Cl)c1 [Composé n° 7, N-[[[(méthyl-5 hydroxy-2 phényl)(chloro-2 phényl)méthylène]amino]-2 éthyl] (hydroxy-4 pipéridinyl-1)-2 acétamide] | > 1000 | 95 | – | –
6 | O=C(CN1CCN(c2ccc(Cl)cc2)CC1)NCCNC(c1cc(Cl)ccc1O)c1ccccc1Cl (stereo not shown) [compound 29] | > 1000 | 98 | – | –
7 | O=C(CN1CCC(O)CC1)NCCN=C(c1cc(Cl)ccc1O)c1ccc(Cl)cc1Cl [compound 8] | > 1000 | – | 98 | –
8 | O=C(CN1CCC(O)CC1)NCCN=C(c1ccc(Cl)c(Cl)c1)c1cc(Cl)ccc1O [compound 5] | > 1000 | 92 | – | –
9 | O=C(CN1CCNCC1)NCCN=C(c1cc(Cl)ccc1O)c1ccccc1Cl [compound 23] | – | – | – | 87
10 | Cc1ccccc1N1CCN(CC(=O)NCCN=C(c2cc(Cl)ccc2O)c2ccccc2Cl)CC1 [compound 19] | > 1000 | – | 71 | –
11 | Cc1ccc(C(=NCCNC(=O)CN2CCC(O)CC2)c2cc(Cl)ccc2O)cc1 [compound 4] | > 1000 | – | 96 | –
12 | O=C(CN1CCC(O)CC1)NCCNC(c1cc(Cl)ccc1O)c1ccccc1Cl (stereo not shown) [compound 26] | > 1000 | 97 | – | –
13 | O=C(CN1CCC(O)CC1)NCCN=C(c1ccccc1Cl)c1cc(Cl)cc(Cl)c1O [compound 6] | > 1000 | 100 | – | –
